The text below walks through data of US12239643B2, “Therapeutic agent for inflammatory diseases, autoimmune diseases, fibrotic diseases, and cancer diseases” (MEIJI SEIKA PHARMA CO., LTD., priority 2018, dated 2025).

Read-outs that look alike come from different tables or passages of the source. Where only a bound is given, the exact number is not on record here.

The subject of one series is PDE4. Briefly: Evaluation of PDE4 inhibitory activity, scintillation proximity assay. Conditions: for PDE4 inhibitory activity: summary in words of Tables 57 to 69. The format is biochemical. In short, it runs like this:
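IC50 was derived from inhibition curves, referenced to an enzyme-free blank and a DMSO-only control. Compound, PDE4 preparation and tritiated cAMP reacted 120 min at RT in Tris-HCl buffer (pH 7.4) with MgCl2, EGTA and BSA; YSi-SPA beads with ZnSO4 bound product before scintillation counting.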
(In general: In a scintillation proximity assay essentially only radioactivity close to the scintillant gives light.)

Series [1] deals with oxazolone-induced auricle edema, BALB/c mice. Put plainly: Hapten repeated application mouse chronic dermatitis model (oral, topical). In kind it is in vivo. The following applies: oral, 0.3 to 10 mg/kg twice a day for 10 days. As to the method:
Evaluation was carried out using female BALB/c mice (7 to 8 weeks of age). First, the hair of the abdomen of the mice was treated with a hair clipper, and then 150 μL of a 3% oxazolone acetone/ethanol solution was applied to the abdomen as a hapten. One week later, 20 μL/ear of 1% oxazolone acetone/ethanol solution was applied to the outer surface of the auricle of both ears of the mice 3 times/week to induce inflammation. A 1% oxazolone-acetone/ethanol solution was applied every other day for 10 days from 1 week after the start of inflammation induction. In addition, for 10 days from 1 week after the start of inflammation induction, the test compound suspended in 0.5% w/v methylcellulose (0.5% MC) was orally administered at 0.3 to 10 mg/kg twice a day (10 μL/g), or 20 μL of a 0.3 to 3% test compound dissolved in an acetone/ethanol solution was applied once or twice a day (topical administration). A 1% oxazolone was not applied to the blank. The control was one in which 1% oxazolone was applied and only 0.5% MC was orally administered without using the test compound, or only an acetone/ethanol solution was applied.
After administration for 10 days, auricle thickness was measured using a dial thickness gauge, and the changes in auricular thickness before the treatment (immediately before the start of administration of the test compound) and after the treatment (after the administration of the test compound for 10 days) were used to calculate the edema suppression rate by the following formula. Edema Suppression Rate (%)={1−(Auricle Thickness After Treatment by Test Compound−Auricle Thickness Before Treatment by Test Compound)/(Auricle Thickness After Treatment of Control−Auricle Thickness Before Treatment of Control)}×100
The measurement results obtained by measuring the edema suppression rate at the time of oral administration of each test compound by the above method were evaluated in accordance with the following evaluated basis; A: 70% or more, B: 40% or more and less than 70%, and C: less than 40%. In addition, the measurement results obtained by measuring the edema suppression rate at the time of topical administration of each test compound were evaluated in accordance with the following evaluated basis; A: 100% or more, B: 70% or more and less than 100%, and C: less than 70%.

The nature of series [2]: Hepatic metabolic stability (rat liver microsome method). The format is in vitro ADME. Conditions: rat liver microsomes 0.5 mg/mL, test substance 1 μM, NADPH 1 mM, 37° C., 30 minutes. The procedure, abridged: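 Scored by % parent left after 30 min (30 min/0 min ×100, LC-MS), banded A ≥75%, B 60–<75%, C 45–<60%, D <45%. Incubation: 1 μM compound, 0.5 mg/mL rat microsomes, pH 7.4 phosphate buffer, 37° C, 5 min preincubation, NADPH 1 mM started, acetonitrile quench.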
A general note: Microsomes from liver hold many membrane-bound enzymes, among them those of drug oxidation.

Where [3] appears, read: finer grading of compounds rated A in Evaluation 1, read-out: PDE4 Inhibitory Activity (Evaluation 2).
Setting [4] is: scintillation proximity assay, read-out: PDE4 Inhibitory Activity (Evaluation 1; concentration for the inhibition rate of 50%).

On to `COC(c1cc(-c2nccs2)c2oc(N3CC4CC(C3)N4)nc2c1OC(F)(F)F)C(F)F` (centres unmarked) [Example 208, 2-(3,6-Diazabicyclo[3.1.1]heptan-3-yl)-5-(2,2-difluoro-1-methoxyethyl)-7-(thiazol-2-yl)-4-(trifluoromethoxy)benzo[d]oxazole], for which the values for the IC50 in the series with PDE4 (setting [3]) and in the series with PDE4 (setting [4]) were 1 to 11 nM and under 100 nM, respectively. In addition, in the series with PDE4, the PDE4 inhibitory activity entry was “particularly excellent”. Further, the “Mouse Chronic Dermatitis Model (Test Example 8), Oral: edema suppression rate” value (“Mouse Chronic Dermatitis Model” below) in series [1] was “B (B: 40% or more and less than 70%)”.

In the case of `CC(=O)c1cc(-c2nccs2)c2oc(N3CC4CC(C3)N4)nc2c1OC(F)(F)F` [Example 212, 1-(2-(3,6-Diazabicyclo[3.1.1]heptan-3-yl)-7-(thiazol-2-yl)-4-(trifluoromethoxy)benzo[d]oxazol-5-yl)ethan-1-one], the IC50 with PDE4 (setting [3]) is at most 1 nM; with PDE4 (setting [4]), under 100 nM. For the same compound, the PDE4 inhibitory activity result in the series with PDE4 was “particularly excellent”. For the same compound, the “Mouse Chronic Dermatitis Model” value in series [1] is “B (B: 40% or more and less than 70%)”.

Regarding `CC(O)(c1ccc(-c2nccs2)c2oc(N3CC4CC(C3)N4)nc12)C(F)(F)F` (centres unmarked) [Example 234, 2-(2-(3,6-Diazabicyclo[3.1.1]heptan-3-yl)-7-(thiazol-2-yl)benzo[d]oxazol-4-yl)-1,1,1-trifluoropropan-2-ol], the IC50 was at most 1 nM in the series with PDE4 (setting [3]) and under 100 nM with PDE4 (setting [4]). For the same compound, the PDE4 inhibitory activity result in the series on PDE4 was “particularly excellent”. The “Mouse Chronic Dermatitis Model” value in series [1] was “A (A: 70% or more)”.

In the case of `COC(C)(c1ccc(-c2nccs2)c2oc(N3CC4CC(C3)N4)nc12)C(F)(F)F` (centres unmarked) [Example 235, 2-(3,6-Diazabicyclo[3.1.1]heptan-3-yl)-7-(thiazol-2-yl)-4-(1,1,1-trifluoro-2-methoxypropan-2-yl)benzo[d]oxazole], the IC50 was at most 1 nM in the series with PDE4 (setting [3]) and under 100 nM in the series with PDE4 (setting [4]). Further, the PDE4 inhibitory activity result with PDE4 is “particularly excellent”. For the same compound, in series [1], the “Mouse Chronic Dermatitis Model” value is “A (A: 70% or more)”.

Consider `CC(O)(c1ccc(-c2nccs2)c2oc(N3CC4CC(C3)N4)nc12)C(F)F` (centres unmarked) [Example 296, 2-(2-(3,6-Diazabicyclo[3.1.1]heptan-3-yl)-7-(thiazol-2-yl)benzo[d]oxazol-4-yl)-1,1-difluoropropan-2-ol], for which the IC50 was 1 to 11 nM with PDE4 (setting [3]) and under 100 nM in the series on PDE4 (setting [4]). Also, in the series with PDE4, the PDE4 inhibitory activity entry is recorded as “particularly excellent”. For the same compound, the “Mouse Chronic Dermatitis Model” value in series [1] was “A (A: 70% or more)”.

On to `CCC(O)C(F)(F)Oc1ccc(-c2nccs2)c2oc(N3CC4CC(C3)N4)nc12` (centres unmarked) [Example 395, 1-((2-(3,6-Diazabicyclo[3.1.1]heptan-3-yl)-7-(thiazol-2-yl)benzo[d]oxazol-4-yl)oxy)-1,1-difluorobutan-2-ol], for which the IC50 with PDE4 (setting [4]) was under 100 nM. For the same compound, the “Residual ratio (% remaining for 30-minute reaction)” value in series [2] is “B (B: 60% or more and less than 75%)”.

As to `OC1CCN(c2ccc(-c3nccs3)c3oc(N4CC5CC(C4)N5)nc23)CC1` [Example 397, 1-(2-(3,6-Diazabicyclo[3.1.1]heptan-3-yl)-7-(thiazol-2-yl)benzo[d]oxazol-4-yl)piperidin-4-ol], the IC50 with PDE4 (setting [4]) was under 100 nM. Besides, the “Residual ratio (% remaining for 30-minute reaction)” value in series [2] is “A (A: a % remaining rate of 75% or more)”.

Consider `CC(C)(O)C(F)(F)Oc1c(Br)cc(-c2nccs2)c2oc(N3CC4CC(C3)N4)nc12` [Example 399, 1-((2-(3,6-Diazabicyclo[3.1.1]heptan-3-yl)-5-bromo-7-(thiazol-2-yl)benzo[d]oxazol-4-yl)oxy)-1,1-difluoro-2-methylpropan-2-ol], for which, in the series on PDE4 (setting [4]), the IC50 was under 100 nM. The “Residual ratio (% remaining for 30-minute reaction)” value in series [2] is “B (B: 60% or more and less than 75%)”.

On to `CC(C)(O)C(F)(F)Oc1c(Cl)cc(-c2nccs2)c2oc(N3CC4CC(C3)N4)nc12` [Example 400, 1-((2-(3,6-Diazabicyclo[3.1.1]heptan-3-yl)-5-chloro-7-(thiazol-2-yl)benzo[d]oxazol-4-yl)oxy)-1,1-difluoro-2-methylpropan-2-ol], for which, in the series on PDE4 (setting [4]), the IC50 is under 100 nM. Moreover, in series [2], the “Residual ratio (% remaining for 30-minute reaction)” value is “B (B: 60% or more and less than 75%)”.

For the compound `OCC(F)(F)Oc1c(Cl)cc(-c2nccs2)c2oc(N3CC4CC(C3)N4)nc12` [Example 401, 2-((2-(3,6-Diazabicyclo[3.1.1]heptan-3-yl)-5-chloro-7-(thiazol-2-yl)benzo[d]oxazol-4-yl)oxy)-2,2-difluoroethan-1-ol], in the series with PDE4 (setting [4]), the IC50 was under 100 nM. Also, the “Residual ratio (% remaining for 30-minute reaction)” value in series [2] is reported as “A (A: a % remaining rate of 75% or more)”.

Regarding `OCC(F)(F)Oc1ccc(-c2nccs2)c2oc(N3CC4CCC(C3)N4)nc12` [Example 404, 2-((2-(3,8-Diazabicyclo[3.2.1]octan-3-yl)-7-(thiazol-2-yl)benzo[d]oxazol-4-yl)oxy)-2,2-difluoroethan-1-ol], the IC50 in the series with PDE4 (setting [4]) is under 100 nM. Moreover, the “Residual ratio (% remaining for 30-minute reaction)” value in series [2] was “B (B: 60% or more and less than 75%)”.

As to `CC(C)(O)C(F)(F)Oc1ccc(-c2nccs2)c2oc(N3CC4CCC(C3)N4)nc12` [Example 405, 1-((2-(3,8-Diazabicyclo[3.2.1]octan-3-yl)-7-(thiazol-2-yl)benzo[d]oxazol-4-yl)oxy)-1,1-difluoro-2-methylpropan-2-ol], in the series on PDE4 (setting [4]), the IC50 was under 100 nM. Further, in series [2], the “Residual ratio (% remaining for 30-minute reaction)” value was “B (B: 60% or more and less than 75%)”.

As for `O=C(N1CCOCC1)C(F)(F)Oc1ccc(-c2nccs2)c2oc(N3CC4CC(C3)N4)nc12` [Example 409, 2-((2-(3,6-Diazabicyclo[3.1.1]heptan-3-yl)-7-(thiazol-2-yl)benzo[d]oxazol-4-yl)oxy)-2,2-difluoro-1-morpholinoethan-1-one], in the series on PDE4 (setting [4]), the IC50 was under 100 nM. In addition, the “Residual ratio (% remaining for 30-minute reaction)” value in series [2] is “B (B: 60% or more and less than 75%)”.

Turning to `NC(=O)C(F)(F)Oc1ccc(-c2nccs2)c2oc(N3CC4CC(C3)N4)nc12` [Example 410, 2-((2-(3,6-Diazabicyclo[3.1.1]heptan-3-yl)-7-(thiazol-2-yl)benzo[d]oxazol-4-yl)oxy)-2,2-difluoroacetamide], in the series on PDE4 (setting [4]), the IC50 is under 100 nM. Moreover, the “Residual ratio (% remaining for 30-minute reaction)” value in series [2] is “A (A: a % remaining rate of 75% or more)”.

With `O=C(NCCO)C(F)(F)Oc1ccc(-c2nccs2)c2oc(N3CC4CC(C3)N4)nc12` [Example 411, 2-((2-(3,6-Diazabicyclo[3.1.1]heptan-3-yl)-7-(thiazol-2-yl)benzo[d]oxazol-4-yl)oxy)-2,2-difluoro-N-(2-hydroxyethyl)acetamide], in the series on PDE4 (setting [4]), the IC50 is under 100 nM. In addition, the “Residual ratio (% remaining for 30-minute reaction)” value in series [2] is listed as “A (A: a % remaining rate of 75% or more)”.

Regarding `O=C(N1CC(O)C1)C(F)(F)Oc1ccc(-c2nccs2)c2oc(N3CC4CC(C3)N4)nc12` [Example 412, 2-((2-(3,6-Diazabicyclo[3.1.1]heptan-3-yl)-7-(thiazol-2-yl)benzo[d]oxazol-4-yl)oxy)-2,2-difluoro-1-(3-hydroxyazetidin-1-yl)ethan-1-one], in the series with PDE4 (setting [4]), the IC50 is under 100 nM. Besides, the “Residual ratio (% remaining for 30-minute reaction)” value in series [2] was “A (A: a % remaining rate of 75% or more)”.

For `FC(F)(F)c1ccc(Oc2cc(-c3nccs3)c3oc(N4CC5CC(C4)N5)nc3c2)nc1` [Example 413, 2-(3,6-Diazabicyclo[3.1.1]heptan-3-yl)-7-(thiazol-2-yl)-5-((5-(trifluoromethyl)pyridin-2-yl)oxy)benzo[d]oxazole], in the series with PDE4 (setting [4]), the IC50 is under 100 nM. Besides, the “Residual ratio (% remaining for 30-minute reaction)” value in series [2] is “A (A: a % remaining rate of 75% or more)”.
